{"source": "patent US12502362B2", "about": "“Inhibitors of nucleotidyltransferase superfamily enzymes as antibiotics” (priority 2017, dated 2025)", "key": {"[1]": {"test_system": "MDR Acinetobacter baumannii", "assay_type": "cell-based", "excerpt": "(§1) All these MDR-bacteria are at least resistant to two classes of the antibiotics among five groups and/or specific antibiotics including quinolones/fluorquinolones, carbapenems, cephalosporins, aminoglycosides and piperacillin-tazobactam."}, "[2]": {"test_system": "MDR E. coli", "assay_type": "cell-based", "excerpt": "as §1"}, "[3]": {"test_system": "Staphylococcus epidermidis", "assay_type": "cell-based", "experimental": "(§2) It was also tested whether compounds #63 and #285 can inhibit other coagulase-negative Staphylococcus (CNS) including S. epidermidis, S. hominis, etc. […]."}, "[4]": {"test_system": "Staphylococcus hominis", "assay_type": "cell-based", "experimental": "as §2"}, "[5]": {"test_system": "Klebsiella pneumonia", "assay": "Antibiotic susceptibility of Klebsiella pneumonia strains", "assay_type": "cell-based", "excerpt": "as §1"}, "[6]": {"test_system": "Morganella morganii", "assay": "Antibiotic susceptibility of Morganella morganii strain", "assay_type": "cell-based", "conditions": "Mm1 (Morganella morganii)", "excerpt": "as §1"}, "[7]": {"test_system": "Coagulase negative Staphylococcus", "assay": "Antibiotic susceptibility of coagulase negative Staphylococcus strains", "assay_type": "cell-based"}, "[8]": {"test_system": "Citrobacter koseri", "assay": "Antibiotic susceptibility of Citrobacter koseri strain", "assay_type": "cell-based", "conditions": "Ck1 (Citrobacter koseri)", "excerpt": "as §1"}, "[9]": {"test_system": "S. aureus ATCC strains and MRSA", "assay_type": "cell-based, Staphylococcus aureus"}, "[10]": {"test_system": "Enterobacter cloacae complex", "assay": "Antibiotic susceptibility of Enterobacter cloacae complex strain", "assay_type": "cell-based", "conditions": "Ecc1 (Enterobacter cloacae complex)", "excerpt": "as §1"}, "[11]": {"conditions": "CNS1 (Coagulase negative Staphylococcus)"}, "[12]": {"conditions": "CNS2 (Coagulase negative Staphylococcus)"}}, "note": "Read-outs that look alike come from different tables or passages of the source.", "data": [{"compound": "C[C@H]1COc2c(N3CCN(C)CC3)c(F)cc3c(=O)c(C(=O)O)cn1c23", "note": "[LVX, levofloxacin]", "values": [{"measurement": "Antibiotic susceptibility", "setting": "[1]; Ab1 (Acinetobacter baumannii)", "value": "R"}, {"measurement": "Antibiotic susceptibility", "setting": "[1]; Ab2 (Acinetobacter baumannii)", "value": "I"}, {"measurement": "Antibiotic susceptibility", "setting": "[1]; Ab3 (Acinetobacter baumannii)", "value": "R"}, {"measurement": "Antibiotic susceptibility", "setting": "[1]; Ab4 (Acinetobacter baumannii)", "value": "R"}, {"measurement": "Antibiotic susceptibility", "setting": "[1]; Ab5 (Acinetobacter baumannii)", "value": "R"}, {"measurement": "Antibiotic susceptibility", "setting": "[2]; Ec1 (E. coli)", "value": "S"}, {"measurement": "Antibiotic susceptibility", "setting": "[2]; Ec2 (E. coli)", "value": "R"}, {"measurement": "Antibiotic susceptibility", "setting": "[2]; Ec3 (E. coli)", "value": "S"}, {"measurement": "Antibiotic susceptibility", "setting": "[2]; Ec4 (E. coli)", "value": "R"}, {"measurement": "Antibiotic susceptibility", "setting": "[2]; Ec5 (E. coli)", "value": "R"}, {"measurement": "Antibiotic susceptibility", "setting": "[3]; Se1 (Staphylococcus epidermidis)", "value": "R"}, {"measurement": "Antibiotic susceptibility", "setting": "[3]; Se2 (Staphylococcus epidermidis)", "value": "S"}, {"measurement": "Antibiotic susceptibility", "setting": "[3]; Se3 (Staphylococcus epidermidis)", "value": "R"}, {"measurement": "Antibiotic susceptibility", "setting": "[3]; Se4 (Staphylococcus epidermidis)", "value": "R"}, {"measurement": "Antibiotic susceptibility", "setting": "[3]; Se5 (Staphylococcus epidermidis)", "value": "R"}, {"measurement": "Antibiotic susceptibility", "setting": "[4]; Sh1 (Staphylococcus hominis)", "value": "R"}, {"measurement": "Antibiotic susceptibility", "setting": "[4]; Sh2 (Staphylococcus hominis)", "value": "S"}, {"measurement": "Antibiotic susceptibility", "setting": "[4]; Sh3 (Staphylococcus hominis)", "value": "S"}, {"measurement": "Antibiotic susceptibility", "setting": "[5]; Kp1 (Klebsiella pneumonia)", "value": "S"}, {"measurement": "Antibiotic susceptibility", "setting": "[5]; Kp6 (Klebsiella pneumonia)", "value": "R"}, {"measurement": "Antibiotic susceptibility", "setting": "[6]", "value": "R"}, {"measurement": "Antibiotic susceptibility", "setting": "[7]; [11]", "value": "S"}, {"measurement": "Antibiotic susceptibility", "setting": "[7]; [12]", "value": "R"}, {"measurement": "Antibiotic susceptibility", "setting": "[8]", "value": "I"}, {"measurement": "Antibiotic susceptibility", "setting": "[9]; S. aureus ATCC 25923", "value": "S"}, {"measurement": "Antibiotic susceptibility", "setting": "[9]; S. aureus ATCC 29213", "value": "S"}, {"measurement": "Antibiotic susceptibility", "setting": "[9]; S. aureus ATCC BAA 976", "value": "S"}, {"measurement": "Antibiotic susceptibility", "setting": "[9]; S. aureus ATCC BAA 977", "value": "S"}, {"measurement": "Antibiotic susceptibility", "setting": "[9]; S. aureus ATCC BAA 1026", "value": "R"}, {"measurement": "Antibiotic susceptibility", "setting": "[9]; Sa1 (MRSA)", "value": "R"}, {"measurement": "Antibiotic susceptibility", "setting": "[9]; Sa2 (MRSA)", "value": "R"}, {"measurement": "Antibiotic susceptibility", "setting": "[9]; Sa3 (MRSA)", "value": "R"}, {"measurement": "Antibiotic susceptibility", "setting": "[9]; Sa6 (MRSA)", "value": "R"}, {"measurement": "Antibiotic susceptibility", "setting": "[9]; Sa7 (MRSA)", "value": "S"}, {"measurement": "Antibiotic susceptibility", "setting": "[9]; Sa9 (MRSA)", "value": "R"}, {"measurement": "Antibiotic susceptibility", "setting": "[9]; Sa11 (MRSA)", "value": "R"}, {"measurement": "Antibiotic susceptibility", "setting": "[9]; Sa12 (MRSA)", "value": "R"}, {"measurement": "Antibiotic susceptibility", "setting": "[9]; Sa14 (MRSA)", "value": "R"}, {"measurement": "Antibiotic susceptibility", "setting": "[9]; Sa15 (MRSA)", "value": "R"}, {"measurement": "Antibiotic susceptibility", "setting": "[9]; Sa16 (MRSA)", "value": "R"}, {"measurement": "Antibiotic susceptibility", "setting": "[9]; Sa17 (MRSA)", "value": "R"}, {"measurement": "Antibiotic susceptibility", "setting": "[9]; Sa18 (MRSA)", "value": "R"}, {"measurement": "Antibiotic susceptibility", "setting": "[9]; Sa19 (MRSA)", "value": "S"}, {"measurement": "Antibiotic susceptibility", "setting": "[9]; Sa20 (MRSA)", "value": "R"}, {"measurement": "Antibiotic susceptibility", "setting": "[9]; Sa21 (MRSA)", "value": "S"}, {"measurement": "Antibiotic susceptibility", "setting": "[9]; Sa22 (MRSA)", "value": "S"}, {"measurement": "Antibiotic susceptibility", "setting": "[9]; Sa23 (MRSA)", "value": "S"}, {"measurement": "Antibiotic susceptibility", "setting": "[10]", "value": "S"}]}, {"compound": "Trimethoprim-Sulfamethoxazole [SXT]", "values": [{"measurement": "Antibiotic susceptibility", "setting": "[1]; Ab1 (Acinetobacter baumannii)", "value": "R"}, {"measurement": "Antibiotic susceptibility", "setting": "[1]; Ab2 (Acinetobacter baumannii)", "value": "R"}, {"measurement": "Antibiotic susceptibility", "setting": "[1]; Ab3 (Acinetobacter baumannii)", "value": "R"}, {"measurement": "Antibiotic susceptibility", "setting": "[1]; Ab4 (Acinetobacter baumannii)", "value": "R"}, {"measurement": "Antibiotic susceptibility", "setting": "[1]; Ab5 (Acinetobacter baumannii)", "value": "R"}, {"measurement": "Antibiotic susceptibility", "setting": "[2]; Ec1 (E. coli)", "value": "R"}, {"measurement": "Antibiotic susceptibility", "setting": "[2]; Ec2 (E. coli)", "value": "R"}, {"measurement": "Antibiotic susceptibility", "setting": "[2]; Ec3 (E. coli)", "value": "R"}, {"measurement": "Antibiotic susceptibility", "setting": "[2]; Ec4 (E. coli)", "value": "S"}, {"measurement": "Antibiotic susceptibility", "setting": "[2]; Ec5 (E. coli)", "value": "R"}, {"measurement": "Antibiotic susceptibility", "setting": "[3]", "value": "R"}, {"measurement": "Antibiotic susceptibility", "setting": "[4]", "value": "R and S"}, {"measurement": "Antibiotic susceptibility", "setting": "[5]; Kp1 (Klebsiella pneumonia)", "value": "R"}, {"measurement": "Antibiotic susceptibility", "setting": "[5]; Kp6 (Klebsiella pneumonia)", "value": "R"}, {"measurement": "Antibiotic susceptibility", "setting": "[6]", "value": "R"}, {"measurement": "Antibiotic susceptibility", "setting": "[7]; [11]", "value": "S"}, {"measurement": "Antibiotic susceptibility", "setting": "[7]; [12]", "value": "S"}, {"measurement": "Antibiotic susceptibility", "setting": "[8]", "value": "R"}, {"measurement": "Antibiotic susceptibility", "setting": "[9]; S. aureus ATCC 25923", "value": "S"}, {"measurement": "Antibiotic susceptibility", "setting": "[9]; S. aureus ATCC 29213", "value": "S"}, {"measurement": "Antibiotic susceptibility", "setting": "[9]; S. aureus ATCC BAA 976", "value": "S"}, {"measurement": "Antibiotic susceptibility", "setting": "[9]; S. aureus ATCC BAA 977", "value": "S"}, {"measurement": "Antibiotic susceptibility", "setting": "[9]; S. aureus ATCC BAA 1026", "value": "R"}, {"measurement": "Antibiotic susceptibility", "setting": "[9]; Sa1 (MRSA)", "value": "R"}, {"measurement": "Antibiotic susceptibility", "setting": "[9]; Sa2 (MRSA)", "value": "S"}, {"measurement": "Antibiotic susceptibility", "setting": "[9]; Sa3 (MRSA)", "value": "S"}, {"measurement": "Antibiotic susceptibility", "setting": "[9]; Sa5 (MRSA)", "value": "S"}, {"measurement": "Antibiotic susceptibility", "setting": "[9]; Sa6 (MRSA)", "value": "S"}, {"measurement": "Antibiotic susceptibility", "setting": "[9]; Sa7 (MRSA)", "value": "S"}, {"measurement": "Antibiotic susceptibility", "setting": "[9]; Sa8 (MRSA)", "value": "S"}, {"measurement": "Antibiotic susceptibility", "setting": "[9]; Sa9 (MRSA)", "value": "S"}, {"measurement": "Antibiotic susceptibility", "setting": "[9]; Sa10 (MRSA)", "value": "S"}, {"measurement": "Antibiotic susceptibility", "setting": "[9]; Sa11 (MRSA)", "value": "S"}, {"measurement": "Antibiotic susceptibility", "setting": "[9]; Sa12 (MRSA)", "value": "S"}, {"measurement": "Antibiotic susceptibility", "setting": "[9]; Sa14 (MRSA)", "value": "S"}, {"measurement": "Antibiotic susceptibility", "setting": "[9]; Sa15 (MRSA)", "value": "R"}, {"measurement": "Antibiotic susceptibility", "setting": "[9]; Sa16 (MRSA)", "value": "S"}, {"measurement": "Antibiotic susceptibility", "setting": "[9]; Sa17 (MRSA)", "value": "S"}, {"measurement": "Antibiotic susceptibility", "setting": "[9]; Sa18 (MRSA)", "value": "S"}, {"measurement": "Antibiotic susceptibility", "setting": "[9]; Sa19 (MRSA)", "value": "S"}, {"measurement": "Antibiotic susceptibility", "setting": "[9]; Sa20 (MRSA)", "value": "S"}, {"measurement": "Antibiotic susceptibility", "setting": "[9]; Sa21 (MRSA)", "value": "S"}, {"measurement": "Antibiotic susceptibility", "setting": "[9]; Sa22 (MRSA)", "value": "S"}, {"measurement": "Antibiotic susceptibility", "setting": "[9]; Sa23 (MRSA)", "value": "S"}, {"measurement": "MRSA strains resistant", "setting": "[9]; number of resistant strains out of 21 MRSA strains", "value": "2/21"}, {"measurement": "Antibiotic susceptibility", "setting": "[10]", "value": "S"}]}]}
